Laboratory results reported in article PMC6915728 (Nature Communications, 2019).
Read-outs that look alike come from different tables or passages of the source.

Assays:
[1] = tested on: AMP-evolved E. coli lines; assay: Cross-resistance / collateral sensitivity: relative MIC change of 38 laboratory-evolved AMP-resistant lines vs parental strain; type: cell-based, Escherichia coli; settings: measured here
From the text: Here, we extended this dataset by measuring susceptibility changes of the same evolved lines to four additional AMPs using identical protocols to represent AMPs from all four clusters (Supplementary Fig. 15a, see also Methods). Overall, the resulting dataset of susceptibility profiles provides a comprehensive map of cross-resistance and collateral sensitivity between AMPs representing various modes of action.
To characterize the cross-resistance of the 38 E. coli lineages we obtained relative MIC changes that are, the MIC values of the evolved lines compared to these of the parental strain, from two data sources. First, we used already measured relative MIC changes from Spohn et al. Supplementary data 4[20]. […] Second, we extended this dataset by measuring the relative MIC changes of the same evolved lines to four additional AMPs using identical protocol. […] In this way, AMPs from each cluster were represented in the dataset.
Supplementary Figure 15. […] Relative change in MIC was determined for each evolved line by comparing its MIC to the ancestral cell line (control). […] CAP18-adaped lines were not included in the analysis because CAP18 is known as a membrane-targeting AMP in the literature. c, Cross-resistance interactions are enriched between membrane-targeting AMPs that are in the same chemical-genetic clusters (i.e. AMP pairs within C1 and within C2 clusters) (Significant difference: ** P = 0.0082 from two-sided Fisher’s exact test, n = 61 and 62 for within cluster and between clusters, respectively). […] Source data are provided as a Source Data file.

[2] = tested on: bacterial membrane; settings: literature mining; ref superscript numbers in the cell, listed in Supplementary Data 7 sheet References; cited from earlier work
From the text: Supplement 41467_2019_13618_MOESM10_ESM.xlsx, sheet "AMP details" | column: Pore formation

[3] = tested on: E. coli gene overexpression; settings: gene waaY overexpressed; ref 10 (Lázár et al. 2018); cited from earlier work
From the text: Supplement 41467_2019_13618_MOESM1_ESM.docx, table 1: Supplementary Table 1. Collected examples of E. coli gene overexpression from the literature as a confirmation of our chemical-genetic screen results. | column: Overexpression phenotype

[4] = tested on: AMP-evolved E. coli lines; settings: ref Spohn et al 2019, cited from earlier work
From the text: Supplement 41467_2019_13618_MOESM13_ESM.xlsx, sheet "Figure 6 and S15" | column: A comprehensive dataset of antimicrobial susceptibility of AMP-adapted lines to antimicrobial peptides (AMPs).

[5] = tested on: bacterial species in which the gene showed activity; settings: cited from earlier work

In the case of “GIGKFLKKAKKFGKAFVKILKK [PEX, Pexiganan, synthetic Magainin derivative; disrupts cell membrane; cluster C2]”, the “Relative change in MIC (MIC of the AMP-adpated line / MIC of the ancestral strain)” value ([1]; AMP-adapted line BAC5_3) is reported as 1, the “Relative change in MIC (MIC of the AMP-adpated line / MIC of the ancestral strain)” value ([1]; AMP-adapted line BAC5_5) is reported as 1 and the “Relative change in MIC (MIC of the AMP-adpated line / MIC of the ancestral strain)” value ([1]; AMP-adapted line BAC5_7) is reported as 1.1. For the same sequence, the “Relative change in MIC (MIC of the AMP-adpated line / MIC of the ancestral strain)” value ([1]; AMP-adapted line BAC5_10) was 1.1, the “Relative change in MIC (MIC of the AMP-adpated line / MIC of the ancestral strain)” value ([1]; AMP-adapted line CAP18_2) was 3.036 and the “Relative change in MIC (MIC of the AMP-adpated line / MIC of the ancestral strain)” value ([1]; AMP-adapted line CAP18_5) was greater than 3.6. For the same sequence, the “Relative change in MIC (MIC of the AMP-adpated line / MIC of the ancestral strain)” value ([1]; AMP-adapted line CAP18_6) was 1.964, the “Relative change in MIC (MIC of the AMP-adpated line / MIC of the ancestral strain)” value ([1]; AMP-adapted line CAP18_8) was 2.986 and the “Relative change in MIC (MIC of the AMP-adpated line / MIC of the ancestral strain)” value ([1]; AMP-adapted line CAP18_10) was 2.488. For the same sequence, the “Relative change in MIC (MIC of the AMP-adpated line / MIC of the ancestral strain)” value ([1]; AMP-adapted line HBD3_3) was 3.648, the “Relative change in MIC (MIC of the AMP-adpated line / MIC of the ancestral strain)” value ([1]; AMP-adapted line HBD3_6) was 2.089 and the “Relative change in MIC (MIC of the AMP-adpated line / MIC of the ancestral strain)” value ([1]; AMP-adapted line HBD3_8) was 3.578. For the same sequence, the “Relative change in MIC (MIC of the AMP-adpated line / MIC of the ancestral strain)” value ([1]; AMP-adapted line HBD3_10) was 2.72, the “Relative change in MIC (MIC of the AMP-adpated line / MIC of the ancestral strain)” value ([1]; AMP-adapted line LL37_1) was 1.584 and the “Relative change in MIC (MIC of the AMP-adpated line / MIC of the ancestral strain)” value ([1]; AMP-adapted line LL37_3) was 1.32. The “Relative change in MIC (MIC of the AMP-adpated line / MIC of the ancestral strain)” value ([1]; AMP-adapted line LL37_6) was 1.22, the “Relative change in MIC (MIC of the AMP-adpated line / MIC of the ancestral strain)” value ([1]; AMP-adapted line LL37_7) was 2.986 and the “Relative change in MIC (MIC of the AMP-adpated line / MIC of the ancestral strain)” value ([1]; AMP-adapted line LL37_10) was 2.093. For the same sequence, the “Relative change in MIC (MIC of the AMP-adpated line / MIC of the ancestral strain)” value ([1]; AMP-adapted line PR39_1) was 1.464, the “Relative change in MIC (MIC of the AMP-adpated line / MIC of the ancestral strain)” value ([1]; AMP-adapted line PR39_2) was 1.1 and the “Relative change in MIC (MIC of the AMP-adpated line / MIC of the ancestral strain)” value ([1]; AMP-adapted line PR39_5) was 1.1. For the same sequence, the “Relative change in MIC (MIC of the AMP-adpated line / MIC of the ancestral strain)” value ([1]; AMP-adapted line PR39_7) was 1.1, the “Relative change in MIC (MIC of the AMP-adpated line / MIC of the ancestral strain)” value ([1]; AMP-adapted line PR39_10) was 1 and the “Relative change in MIC (MIC of the AMP-adpated line / MIC of the ancestral strain)” value ([1]; AMP-adapted line PROA_2) was 1.1. For the same sequence, the “Relative change in MIC (MIC of the AMP-adpated line / MIC of the ancestral strain)” value ([1]; AMP-adapted line PROA_3) was 1.1, the “Relative change in MIC (MIC of the AMP-adpated line / MIC of the ancestral strain)” value ([1]; AMP-adapted line PROA_7) was 0.915 and the “Relative change in MIC (MIC of the AMP-adpated line / MIC of the ancestral strain)” value ([1]; AMP-adapted line PROA_8) was 1.2. The “Relative change in MIC (MIC of the AMP-adpated line / MIC of the ancestral strain)” value ([1]; AMP-adapted line PROA_9) was 1, the “Relative change in MIC (MIC of the AMP-adpated line / MIC of the ancestral strain)” value ([1]; AMP-adapted line PXB_2) was 1.32 and the “Relative change in MIC (MIC of the AMP-adpated line / MIC of the ancestral strain)” value ([1]; AMP-adapted line PXB_5) was 1.844. For the same sequence, the “Relative change in MIC (MIC of the AMP-adpated line / MIC of the ancestral strain)” value ([1]; AMP-adapted line PXB_6) was 1.6368, the “Relative change in MIC (MIC of the AMP-adpated line / MIC of the ancestral strain)” value ([1]; AMP-adapted line PXB_8) was 1.844 and the “Relative change in MIC (MIC of the AMP-adpated line / MIC of the ancestral strain)” value ([1]; AMP-adapted line PXB_10) was greater than 3.6. The “Pore formation (whether AMP makes pores in the bacterial membrane)” value (shortened to “Pore formation”) [2] was “Yes13”.
For “GLRKRLRKFRNKIKEKLKKIGQKIQGFVPKLAPRTDY [CAP18, antimicrobial peptide, source rabbit; disrupts cell membrane; cluster C3]”, the “Overexpression phenotype, Literature” value [3] is listed as “Sensitivity^10” and the “Pore formation” value [2] is listed as “Yes35”.
In the case of “ILPWKWPWWPWRR [IND, Indolicidin, antimicrobial peptide from bovine neutrophils; cluster C3]”, the “Relative change in MIC (MIC of the AMP-adpated line / MIC of the ancestral strain)” value ([1]; AMP-adapted line PR39_10) is given as 1.3, the “Relative change in MIC (MIC of the AMP-adpated line / MIC of the ancestral strain)” value ([4]; AMP-adapted line BAC5_3) is given as 1.2 and the “Relative change in MIC (MIC of the AMP-adpated line / MIC of the ancestral strain)” value ([4]; AMP-adapted line BAC5_5) is given as 0.8. The “Relative change in MIC (MIC of the AMP-adpated line / MIC of the ancestral strain)” value ([4]; AMP-adapted line BAC5_7) was 0.9, the “Relative change in MIC (MIC of the AMP-adpated line / MIC of the ancestral strain)” value ([4]; AMP-adapted line BAC5_10) was 1 and the “Relative change in MIC (MIC of the AMP-adpated line / MIC of the ancestral strain)” value ([4]; AMP-adapted line CAP18_2) was 1. The “Relative change in MIC (MIC of the AMP-adpated line / MIC of the ancestral strain)” value ([4]; AMP-adapted line CAP18_5) was 0.6, the “Relative change in MIC (MIC of the AMP-adpated line / MIC of the ancestral strain)” value ([4]; AMP-adapted line CAP18_6) was 0.6 and the “Relative change in MIC (MIC of the AMP-adpated line / MIC of the ancestral strain)” value ([4]; AMP-adapted line CAP18_8) was 1. The “Relative change in MIC (MIC of the AMP-adpated line / MIC of the ancestral strain)” value ([4]; AMP-adapted line CAP18_10) was 0.8, the “Relative change in MIC (MIC of the AMP-adpated line / MIC of the ancestral strain)” value ([4]; AMP-adapted line HBD3_3) was 1.3 and the “Relative change in MIC (MIC of the AMP-adpated line / MIC of the ancestral strain)” value ([4]; AMP-adapted line HBD3_6) was 1. The “Relative change in MIC (MIC of the AMP-adpated line / MIC of the ancestral strain)” value ([4]; AMP-adapted line HBD3_8) was 0.8, the “Relative change in MIC (MIC of the AMP-adpated line / MIC of the ancestral strain)” value ([4]; AMP-adapted line HBD3_10) was 1.2 and the “Relative change in MIC (MIC of the AMP-adpated line / MIC of the ancestral strain)” value ([4]; AMP-adapted line LL37_1) was 0.8. The “Relative change in MIC (MIC of the AMP-adpated line / MIC of the ancestral strain)” value ([4]; AMP-adapted line LL37_3) was 0.8, the “Relative change in MIC (MIC of the AMP-adpated line / MIC of the ancestral strain)” value ([4]; AMP-adapted line LL37_6) was 0.6 and the “Relative change in MIC (MIC of the AMP-adpated line / MIC of the ancestral strain)” value ([4]; AMP-adapted line LL37_7) was 1. For the same sequence, the “Relative change in MIC (MIC of the AMP-adpated line / MIC of the ancestral strain)” value ([4]; AMP-adapted line LL37_10) was 0.8, the “Relative change in MIC (MIC of the AMP-adpated line / MIC of the ancestral strain)” value ([4]; AMP-adapted line PEX_1) was 1 and the “Relative change in MIC (MIC of the AMP-adpated line / MIC of the ancestral strain)” value ([4]; AMP-adapted line PEX_4) was 1.4. The “Relative change in MIC (MIC of the AMP-adpated line / MIC of the ancestral strain)” value ([4]; AMP-adapted line PEX_5) was 1, the “Relative change in MIC (MIC of the AMP-adpated line / MIC of the ancestral strain)” value ([4]; AMP-adapted line PEX_6) was 1 and the “Relative change in MIC (MIC of the AMP-adpated line / MIC of the ancestral strain)” value ([4]; AMP-adapted line PEX_7) was 1.2. For the same sequence, the “Relative change in MIC (MIC of the AMP-adpated line / MIC of the ancestral strain)” value ([4]; AMP-adapted line PR39_1) was 1.1, the “Relative change in MIC (MIC of the AMP-adpated line / MIC of the ancestral strain)” value ([4]; AMP-adapted line PR39_2) was 1 and the “Relative change in MIC (MIC of the AMP-adpated line / MIC of the ancestral strain)” value ([4]; AMP-adapted line PR39_5) was 1.3. The “Relative change in MIC (MIC of the AMP-adpated line / MIC of the ancestral strain)” value ([4]; AMP-adapted line PR39_7) was 0.9, the “Relative change in MIC (MIC of the AMP-adpated line / MIC of the ancestral strain)” value ([4]; AMP-adapted line PROA_2) was 1.1 and the “Relative change in MIC (MIC of the AMP-adpated line / MIC of the ancestral strain)” value ([4]; AMP-adapted line PROA_3) was 0.8. The “Relative change in MIC (MIC of the AMP-adpated line / MIC of the ancestral strain)” value ([4]; AMP-adapted line PROA_7) was 0.8, the “Relative change in MIC (MIC of the AMP-adpated line / MIC of the ancestral strain)” value ([4]; AMP-adapted line PROA_8) was 1.1 and the “Relative change in MIC (MIC of the AMP-adpated line / MIC of the ancestral strain)” value ([4]; AMP-adapted line PROA_9) was 1. For the same sequence, the “Relative change in MIC (MIC of the AMP-adpated line / MIC of the ancestral strain)” value ([4]; AMP-adapted line PXB_2) was 2.1, the “Relative change in MIC (MIC of the AMP-adpated line / MIC of the ancestral strain)” value ([4]; AMP-adapted line PXB_5) was 3 and the “Relative change in MIC (MIC of the AMP-adpated line / MIC of the ancestral strain)” value ([4]; AMP-adapted line PXB_6) was 3. The “Relative change in MIC (MIC of the AMP-adpated line / MIC of the ancestral strain)” value ([4]; AMP-adapted line PXB_8) was 2.7, the “Relative change in MIC (MIC of the AMP-adpated line / MIC of the ancestral strain)” value ([4]; AMP-adapted line PXB_10) was 1.6 and the “Gene that modulates bacterial susceptibility to the AMP” value ([5]; Bordetella pertussis, ref http://www.ncbi.nlm.nih.gov/pmc/articles/PMC4136009/) was “lgmA, IgmB, IgmC”. For the same sequence, the “Gene that modulates bacterial susceptibility to the AMP” value ([5]; Staphylococcus aureus, ref http://onlinelibrary.wiley.com/doi/10.1111/j.1365-2958.2007.05986.x/epdf) was “apsS” and the “Pore formation” value [2] was “Yes39”.
